Measurements: ChEMBL document CHEMBL2440076, “New triarylpyrazoles as broad-spectrum anticancer agents: design, synthesis, and biological evaluation” (Eur J Med Chem, 2013)

How the values were obtained:
Assay type in all cases: functional
[1] = test system: A498; assay: Growth inhibition of human A498 cells assessed as cell growth at 5X10'-6 M after 48 hrs by sulforhodamine B assay; settings: A498, 48 h, read-out: Activity
[2] = test system: ACHN; assay: Growth inhibition of human ACHN cells assessed as cell growth at 5X10'-8 M after 48 hrs by sulforhodamine B assay; settings: read-out: Activity
[3] = test system: HCT-116; assay: Growth inhibition of human HCT116 cells assessed as cell growth at 5X10'-9 M after 48 hrs by sulforhodamine B assay; settings: HCT-116, 48 h, read-out: Activity
[4] = test system: SF-539; assay: Growth inhibition of human SF539 cells assessed as cell growth at 5X10'-8 M after 48 hrs by sulforhodamine B assay; settings: SF-539, 48 h, read-out: Activity
[5] = test system: RPMI-8226; assay: Growth inhibition of human RPMI8226 cells assessed as cell growth at 5X10'-8 M after 48 hrs by sulforhodamine B assay; settings: RPMI-8226, 48 h, read-out: Activity
[6] = test system: HL-60(TB); assay: Growth inhibition of human HL-60(TB) cells assessed as cell growth at 5X10'-7 M after 48 hrs by sulforhodamine B assay; settings: HL-60, 48 h, read-out: Activity
[7] = Growth inhibition of human Hs 578T cells assessed as cell growth at 5X10'-6 M after 48 hrs by sulforhodamine B assay; settings: read-out: Activity
[8] = test system: MDA-MB-435; assay: Growth inhibition of human MDA-MB-435 cells assessed as cell growth at 5X10'-7 M after 48 hrs by sulforhodamine B assay; settings: MDA-MB-435, 48 h, read-out: Activity
[9] = Growth inhibition of human NCI-ADR-RES cells assessed as cell growth at 5X10'-7 M after 48 hrs by sulforhodamine B assay; settings: read-out: Activity
[10] = test system: IGROV-1; assay: Growth inhibition of human IGROV1 cells assessed as cell growth at 5X10'-6 M after 48 hrs by sulforhodamine B assay; settings: IGROV-1, 48 h, read-out: Activity
[11] = test system: UACC-257; assay: Growth inhibition of human UACC257 cells assessed as cell growth at 5X10'-8 M after 48 hrs by sulforhodamine B assay; settings: UACC-257, 48 h, read-out: Activity
[12] = test system: NCI-H522; assay: Growth inhibition of human NCI-H522 cells assessed as cell growth at 5X10'-5 M after 48 hrs by sulforhodamine B assay; settings: NCI-H522, 48 h, read-out: Activity
[13] = test system: TK-10; assay: Growth inhibition of human TK10 cells assessed as cell growth at 5X10'-9 M after 48 hrs by sulforhodamine B assay; settings: TK-10, 48 h, read-out: Activity
[14] = test system: HCT-116; assay: Growth inhibition of human HCT116 cells assessed as cell growth at 5X10'-8 M after 48 hrs by sulforhodamine B assay; settings: HCT-116, 48 h, read-out: Activity
[15] = test system: HL-60(TB); assay: Growth inhibition of human HL-60(TB) cells assessed as cell growth at 5X10'-8 M after 48 hrs by sulforhodamine B assay; settings: HL-60, 48 h, read-out: Activity
[16] = test system: TK-10; assay: Growth inhibition of human TK10 cells assessed as cell growth at 5X10'-5 M after 48 hrs by sulforhodamine B assay; settings: TK-10, 48 h, read-out: Activity
[17] = test system: UO-31; assay: Growth inhibition of human UO31 cells assessed as cell growth at 5X10'-8 M after 48 hrs by sulforhodamine B assay; settings: UO-31, 48 h, read-out: Activity
[18] = test system: NCI-H522; assay: Growth inhibition of human NCI-H522 cells assessed as cell growth at 5X10'-8 M after 48 hrs by sulforhodamine B assay; settings: NCI-H522, 48 h, read-out: Activity
[19] = test system: UACC-62; assay: Growth inhibition of human UACC62 cells assessed as cell growth at 5X10'-9 M after 48 hrs by sulforhodamine B assay; settings: UACC-62, 48 h, read-out: Activity
[20] = test system: SK-MEL-28; assay: Growth inhibition of human SK-MEL-28 cells assessed as cell growth at 5X10'-5 M after 48 hrs by sulforhodamine B assay; settings: SK-MEL-28, 48 h, read-out: Activity
[21] = test system: CCRF-CEM; assay: Growth inhibition of human CCRF-CEM cells assessed as cell growth at 5X10'-7 M after 48 hrs by sulforhodamine B assay; settings: read-out: Activity
[22] = test system: A549; assay: Growth inhibition of human A549/ATCC cells assessed as cell growth at 5X10'-8 M after 48 hrs by sulforhodamine B assay; settings: A549, 48 h, read-out: Activity
[23] = test system: OVCAR-8; assay: Growth inhibition of human OVCAR8 cells assessed as cell growth at 5X10'-8 M after 48 hrs by sulforhodamine B assay; settings: OVCAR-8, 48 h, read-out: Activity
[24] = test system: UO-31; assay: Growth inhibition of human UO31 cells assessed as cell growth at 5X10'-7 M after 48 hrs by sulforhodamine B assay; settings: UO-31, 48 h, read-out: Activity
[25] = test system: BT-549; assay: Growth inhibition of human BT549 cells assessed as cell growth at 5X10'-7 M after 48 hrs by sulforhodamine B assay; settings: BT-549, 48 h, read-out: Activity
[26] = test system: CCRF-CEM; assay: Growth inhibition of human CCRF-CEM cells assessed as cell growth at 5X10'-9 M after 48 hrs by sulforhodamine B assay; settings: read-out: Activity
[27] = test system: HOP-62; assay: Growth inhibition of human HOP62 cells assessed as cell growth at 5X10'-6 M after 48 hrs by sulforhodamine B assay; settings: HOP-62, 48 h, read-out: Activity
[28] = test system: HCT-15; assay: Growth inhibition of human HCT15 cells assessed as cell growth at 5X10'-6 M after 48 hrs by sulforhodamine B assay; settings: HCT-15, 48 h, read-out: Activity
[29] = test system: SK-MEL-5; assay: Growth inhibition of human SK-MEL-5 cells assessed as cell growth at 5X10'-7 M after 48 hrs by sulforhodamine B assay; settings: SK-MEL-5, 48 h, read-out: Activity
[30] = test system: NCI-H522; assay: Growth inhibition of human NCI-H522 cells assessed as cell growth at 5X10'-6 M after 48 hrs by sulforhodamine B assay; settings: NCI-H522, 48 h, read-out: Activity
[31] = test system: NCI-H322M; assay: Growth inhibition of human NCI-H322M cells assessed as cell growth at 5X10'-5 M after 48 hrs by sulforhodamine B assay; settings: read-out: Activity
[32] = test system: 786-0; assay: Growth inhibition of human 786-0 cells assessed as cell growth at 5X10'-7 M after 48 hrs by sulforhodamine B assay; settings: 786-0, 48 h, read-out: Activity
[33] = test system: SN12C; assay: Growth inhibition of human SN12C cells assessed as cell growth at 5X10'-6 M after 48 hrs by sulforhodamine B assay; settings: read-out: Activity
[34] = Growth inhibition of human HCC2998 cells assessed as cell growth at 5X10'-7 M after 48 hrs by sulforhodamine B assay; settings: HCC 2998, 48 h, read-out: Activity
[35] = test system: OVCAR-5; assay: Growth inhibition of human OVCAR5 cells assessed as cell growth at 5X10'-9 M after 48 hrs by sulforhodamine B assay; settings: OVCAR-5, 48 h, read-out: Activity
[36] = test system: PC-3; assay: Growth inhibition of human PC3 cells assessed as cell growth at 5X10'-7 M after 48 hrs by sulforhodamine B assay; settings: PC-3, 48 h, read-out: Activity
[37] = test system: NCI-H322M; assay: Growth inhibition of human NCI-H322M cells assessed as cell growth at 5X10'-6 M after 48 hrs by sulforhodamine B assay; settings: read-out: Activity

| Structure (SMILES) | growth at 5 µM [1] | growth at 0.05 µM [2] | growth at 0.005 µM [3] | growth at 0.05 µM [4] | growth at 0.05 µM [5] | growth at 0.5 µM [6] | growth at 5 µM [7] | growth at 0.5 µM [8] | growth at 0.5 µM [9] | growth at 5 µM [10] | growth at 0.05 µM [11] | growth at 50 µM [12] | growth at 0.005 µM [13] | growth at 0.05 µM [14] | growth at 0.05 µM [15] | growth at 50 µM [16] | growth at 0.05 µM [17] | growth at 0.05 µM [18] | growth at 0.005 µM [19] | growth at 50 µM [20] | also measured |
| --- | --- | --- | --- | --- | --- | --- | --- | --- | --- | --- | --- | --- | --- | --- | --- | --- | --- | --- | --- | --- | --- |
| COc1cc(-c2nn(-c3cccc(NC(=O)Nc4cc(C(F)(F)F)cc(C(F)(F)F)c4)c3)cc2-c2ccncc2)ccc1Cl | -43% | 100% | 101% | 90% | 95% | 75% | -12% | 85% | 72% | -42% | 98% | -65% | 94% | 106% | 98% | -86% | 94% | 103% | 97% | -87% | growth at 0.5 µM [21]: 50%; growth at 0.05 µM [22]: 95%; growth at 0.05 µM [23]: 97%; growth at 0.5 µM [24]: 62%; growth at 0.5 µM [25]: 98%; growth at 0.005 µM [26]: 101%; growth at 5 µM [27]: -92%; growth at 5 µM [28]: -57%; growth at 0.5 µM [29]: 74%; growth at 5 µM [30]: -48%; growth at 50 µM [31]: -58%; growth at 0.5 µM [32]: 92%; growth at 5 µM [33]: -16%; growth at 0.5 µM [34]: 95%; growth at 0.005 µM [35]: 87%; growth at 0.5 µM [36]: 33%; growth at 5 µM [37]: -24% |
| COc1cc(-c2nn(-c3cccc(NC(=O)Nc4ccc(Cl)c(Cl)c4)c3)cc2-c2ccncc2)ccc1Cl | -3% | 98% | 105% | 85% | 92% | 98% | 11% | 84% | 72% | -17% | 88% | -26% | 100% | 107% | 114% | -1% | 88% | 101% | 98% | -6% | growth at 0.5 µM [21]: 74%; growth at 0.05 µM [22]: 92%; growth at 0.05 µM [23]: 96%; growth at 0.5 µM [24]: 65%; growth at 0.5 µM [25]: 97%; growth at 0.005 µM [26]: 101%; growth at 5 µM [27]: -1%; growth at 5 µM [28]: 10%; growth at 0.5 µM [29]: 78%; growth at 5 µM [30]: -18%; growth at 50 µM [31]: 6%; growth at 0.5 µM [32]: 89%; growth at 5 µM [33]: 14%; growth at 0.5 µM [34]: 97%; growth at 0.005 µM [35]: 93%; growth at 0.5 µM [36]: 53%; growth at 5 µM [37]: 15% |
| COc1cc(-c2nn(-c3cccc(NC(=O)Nc4cccc(C(F)(F)F)c4)c3)cc2-c2ccncc2)ccc1Cl | -7% | 97% | 101% | 94% | 97% | 85% | 4% | 80% | 65% | -22% | 98% | -41% | 94% | 99% | 94% | -7% | 79% | 91% | 95% | -69% | growth at 0.5 µM [21]: 69%; growth at 0.05 µM [22]: 97%; growth at 0.05 µM [23]: 101%; growth at 0.5 µM [24]: 61%; growth at 0.5 µM [25]: 91%; growth at 0.005 µM [26]: 104%; growth at 5 µM [27]: -9%; growth at 5 µM [28]: 1%; growth at 0.5 µM [29]: 78%; growth at 5 µM [30]: -30%; growth at 50 µM [31]: -14%; growth at 0.5 µM [32]: 91%; growth at 5 µM [33]: 12%; growth at 0.5 µM [34]: 94%; growth at 0.005 µM [35]: 84%; growth at 0.5 µM [36]: 44%; growth at 5 µM [37]: -2% |
